In the test the test system is P388 leukemia ip, CD2F1 mice, survival T/C. Briefly: NCI In Vivo Anticancer Drug Screen. Data for tumor model P388 Leukemia (intraperitoneal) in CD2F1 (CDF1) mice. The following applies: endpoint: median survival time, higher = longer survival. A digest of the protocol: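 Mice carrying the transplanted tumor received test compound or vehicle. Survival was recorded in each group, and the value is the treated-group measurement divided by that of the vehicle-treated control group.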

Setting [1] is: dose: 12.5 mg/kg/injection, schedule: Q01DX005 (ip), vehicle: saline with Tween-80.
Where [2] appears, read: dose: 25.0 mg/kg/injection, schedule: Q01DX005 (ip), vehicle: saline with Tween-80.
[3] abbreviates: dose: 50.0 mg/kg/injection, schedule: Q01DX005 (ip), vehicle: saline with Tween-80.
Setting [4] is: dose: 100.0 mg/kg/injection, schedule: Q01DX005 (ip), vehicle: saline with Tween-80.
[5] abbreviates: dose: 50.0 mg/kg/injection, schedule: Q01DX009 (ip), vehicle: saline.
The mark [6] stands for this setting: dose: 100.0 mg/kg/injection, schedule: Q01DX009 (ip), vehicle: saline.
Setting [7] is: dose: 200.0 mg/kg/injection, schedule: Q01DX009 (ip), vehicle: saline.
The mark [8] stands for this setting: dose: 50.0 mg/kg/injection, schedule: Q01DX009 (ip), vehicle: saline with Tween-80.
Setting [9] is: dose: 100.0 mg/kg/injection, schedule: Q01DX009 (ip), vehicle: saline with Tween-80.
Where [10] appears, read: dose: 200.0 mg/kg/injection, schedule: Q01DX009 (ip), vehicle: saline with Tween-80.
Where [11] appears, read: dose: 60.0 mg/kg/injection, schedule: Q01DX005 (ip), vehicle: Klucel (hydroxypropylcellulose) (HPC).
The mark [12] stands for this setting: dose: 120.0 mg/kg/injection, schedule: Q01DX005 (ip), vehicle: Klucel (hydroxypropylcellulose) (HPC).
Setting [13] is: dose: 240.0 mg/kg/injection, schedule: Q01DX005 (ip), vehicle: Klucel (hydroxypropylcellulose) (HPC).

Toxic doses and inconclusive results are not listed.

For the molecule `O=C(N/N=C/c1c(O)ccc2ccccc12)C(=O)N/N=C/c1c(O)ccc2ccccc12`, the T/C was 97 % of control under setting [1], 94 % of control under setting [2], 121 % of control under setting [3] and 186 % of control under setting [4].

Consider `CCOC(=O)c1nc(C)[nH]c(=O)c1C`, for which the T/C reads like this: (dose: 8.0 mg/kg/injection, schedule: Q01DX009 (ip), vehicle: water) 100 % of control; (dose: 16.0 mg/kg/injection, schedule: Q01DX009 (ip), vehicle: water) 95 % of control; (dose: 32.0 mg/kg/injection, schedule: Q01DX009 (ip), vehicle: water) 100 % of control; (dose: 64.0 mg/kg/injection, schedule: Q01DX009 (ip), vehicle: water) 100 % of control; (dose: 128.0 mg/kg/injection, schedule: Q01DX009 (ip), vehicle: water) 98 % of control.

On to `CC1=NC(=O)CC2=C1C(C)N(Cc1ccccc1)C2=O` (centres undefined), for which the T/C was 98 % of control under setting [5], 94 % of control under setting [6] and 99 % of control under setting [7].

As for `COC1CC(N)C2OC(c3ccccc3)OCC2O1` (centres undefined), the T/C under setting [8] is 99 % of control, the T/C under setting [9] was 101 % of control and the T/C under setting [10] was 109 % of control.

As for `COc1ccccc1-n1c(Cc2cccc3ccccc23)nnc1SCC(=O)O`, the T/C by setting is: (dose: 50.0 mg/kg/injection, schedule: Q01DX005 (ip), vehicle: Klucel (hydroxypropylcellulose) (HPC)) 100 % of control; (dose: 100.0 mg/kg/injection, schedule: Q01DX005 (ip), vehicle: Klucel (hydroxypropylcellulose) (HPC)) 100 % of control; (dose: 200.0 mg/kg/injection, schedule: Q01DX005 (ip), vehicle: Klucel (hydroxypropylcellulose) (HPC)) 100 % of control.

Consider `CCCCCC(=O)C1C(c2ccc(C)cc2)CC(=O)C(CCCC)C1c1ccc(C)cc1` (centres undefined), for which the T/C runs as follows: under setting [3], 93 % of control; under setting [4], 93 % of control; (dose: 200.0 mg/kg/injection, schedule: Q01DX005 (ip), vehicle: saline with Tween-80) 93 % of control.

On to `NC(=O)Cc1nc(O)cs1`, for which the T/C by setting is: under setting [11], 102 % of control; under setting [12], 101 % of control; under setting [13], 109 % of control.

On to `Cc1ccc(N=C(Cl)Nc2ccc(C)cc2)cc1`, for which the T/C is 105 % of control under setting [8], 108 % of control under setting [9] and 98 % of control under setting [10].

As for `CSc1cc(C)c(O)c(CO)c1`, the T/C (dose: 100.0 mg/kg/injection, schedule: Q04DX003 (ip), vehicle: other) is 104 % of control; the T/C (dose: 200.0 mg/kg/injection, schedule: Q04DX003 (ip), vehicle: other) is 100 % of control; the T/C (dose: 400.0 mg/kg/injection, schedule: Q04DX003 (ip), vehicle: other) was 100 % of control.

With `c1ccc(Cn2nnnc2-c2ccccc2)cc1`, the T/C (dose: 100.0 mg/kg/injection, schedule: Q04DX003 (ip), vehicle: saline with Tween-80) is 100 % of control; the T/C (dose: 200.0 mg/kg/injection, schedule: Q04DX003 (ip), vehicle: saline with Tween-80) is 96 % of control; the T/C (dose: 400.0 mg/kg/injection, schedule: Q04DX003 (ip), vehicle: saline with Tween-80) was 88 % of control.

In the case of `CCCCOCC(=O)OC`, the T/C reads like this: under setting [8], 102 % of control; under setting [9], 102 % of control; under setting [10], 107 % of control.

In the case of `CC1C(C#N)C(=O)NC(=O)C1C#N` (centres undefined), the T/C is, setting by setting: under setting [5], 99 % of control; under setting [6], 100 % of control; under setting [7], 100 % of control.

With `c1ccc(SNSc2ccccc2)cc1`, the T/C reads like this: (dose: 100.0 mg/kg/injection, schedule: Q04DX003 (ip), vehicle: Klucel (hydroxypropylcellulose) (HPC)) 103 % of control; (dose: 200.0 mg/kg/injection, schedule: Q04DX003 (ip), vehicle: Klucel (hydroxypropylcellulose) (HPC)) 101 % of control; (dose: 400.0 mg/kg/injection, schedule: Q04DX003 (ip), vehicle: Klucel (hydroxypropylcellulose) (HPC)) 106 % of control.

In the case of `CCC(=O)CC1(C(=O)OC)NC(=S)NC(=O)C1C#N` (centres undefined), the T/C was 102 % of control under setting [11], 103 % of control under setting [12] and 100 % of control under setting [13].

With `CC1CN1P(=O)(OCCCl)N1CC1C` (centres undefined), the T/C (dose: 44.0 mg/kg/injection, schedule: Q04DX003 (ip), vehicle: saline) was 113 % of control; the T/C under setting [5] was 120 % of control; the T/C (dose: 66.0 mg/kg/injection, schedule: Q04DX003 (ip), vehicle: saline) was 113 % of control; the T/C under setting [6] was 120 % of control; the T/C (dose: 100.0 mg/kg/injection, schedule: Q04DX003 (ip), vehicle: saline) is 118 % of control; the T/C (dose: 150.0 mg/kg/injection, schedule: Q04DX003 (ip), vehicle: saline) was 86 % of control.

On to `CC(C)=CC(=O)NCCO`, for which the T/C is 100 % of control (dose: 100.0 mg/kg/injection, schedule: Q04DX002 (ip), vehicle: saline); 100 % of control (dose: 200.0 mg/kg/injection, schedule: Q04DX002 (ip), vehicle: saline); 105 % of control (dose: 400.0 mg/kg/injection, schedule: Q04DX002 (ip), vehicle: saline).

Take `C=C(CCCC)CNCCOC(=O)c1ccc([N+](=O)[O-])cc1`: the T/C reads like this: (dose: 12.5 mg/kg/injection, schedule: Q04DX003 (ip), vehicle: saline) 104 % of control; (dose: 25.0 mg/kg/injection, schedule: Q04DX003 (ip), vehicle: saline) 104 % of control; (dose: 50.0 mg/kg/injection, schedule: Q04DX003 (ip), vehicle: saline) 104 % of control.

Regarding `O=P(O)(O)Oc1ccc(NCCO)cc1`, the T/C (dose: 50.0 mg/kg/injection, schedule: Q01DX001 (ip), vehicle: saline) is 107 % of control; the T/C (dose: 100.0 mg/kg/injection, schedule: Q01DX001 (ip), vehicle: saline) is 99 % of control; the T/C (dose: 200.0 mg/kg/injection, schedule: Q01DX001 (ip), vehicle: saline) was 100 % of control; the T/C (dose: 400.0 mg/kg/injection, schedule: Q01DX001 (ip), vehicle: saline) was 100 % of control.

As for `CCc1nc(-c2ccccc2)nc2c1nc(C(C)C)n2Nc1ccccc1`, the T/C runs as follows: (dose: 100.0 mg/kg/injection, schedule: Q01DX001 (ip), vehicle: saline with Tween-80) 104 % of control; (dose: 200.0 mg/kg/injection, schedule: Q01DX001 (ip), vehicle: saline with Tween-80) 93 % of control; (dose: 400.0 mg/kg/injection, schedule: Q01DX001 (ip), vehicle: saline with Tween-80) 89 % of control.

For the molecule `C[n+]1cc(-c2ccccc2)cc(-c2ccccc2)c1`, the T/C is, setting by setting: (dose: 3.12 mg/kg/injection, schedule: Q01DX005 (ip), vehicle: Klucel (hydroxypropylcellulose) (HPC)) 104 % of control; (dose: 3.12 mg/kg/injection, schedule: Q01DX005 (ip), vehicle: saline) 103 % of control; (dose: 6.25 mg/kg/injection, schedule: Q01DX005 (ip), vehicle: Klucel (hydroxypropylcellulose) (HPC)) 109 % of control; (dose: 6.25 mg/kg/injection, schedule: Q01DX005 (ip), vehicle: saline with Tween-80) 105 % of control; (dose: 6.25 mg/kg/injection, schedule: Q01DX005 (ip), vehicle: saline) 97 % of control; (dose: 12.5 mg/kg/injection, schedule: Q01DX005 (ip), vehicle: Klucel (hydroxypropylcellulose) (HPC)) 104 % of control. Moreover, the T/C runs as follows: under setting [1], 100 % of control; (dose: 12.5 mg/kg/injection, schedule: Q01DX005 (ip), vehicle: saline) 96 % of control; under setting [2], 96 % of control.

As for `Cc1ccc(S(=O)(=O)NC(=O)c2ccccc2)cc1`, the T/C reads like this: under setting [9], 100 % of control; under setting [10], 100 % of control; (dose: 400.0 mg/kg/injection, schedule: Q01DX009 (ip), vehicle: saline with Tween-80) 91 % of control.

Consider `COc1ccc(-n2c(=O)c(N=Nc3ccc(S(=O)(=O)N=C(N)N)cc3)c(O)n(-c3ccc(Cl)cc3)c2=S)cc1`, for which the T/C is 99 % of control (dose: 100.0 mg/kg/injection, schedule: Q01DX002 (ip), vehicle: Klucel (hydroxypropylcellulose) (HPC)); 107 % of control (dose: 200.0 mg/kg/injection, schedule: Q01DX002 (ip), vehicle: Klucel (hydroxypropylcellulose) (HPC)); 106 % of control (dose: 400.0 mg/kg/injection, schedule: Q01DX002 (ip), vehicle: Klucel (hydroxypropylcellulose) (HPC)).

These data come from PubChem BioAssay AID330 (DTP/NCI, 2004).
